Legend:
Human melanocortin (MC5) = molecular target: T1, Human melanocortin (MC5) (Homo sapiens, UniProt P33032); test: Radioligand binding, human melanocortin MC5 membranes, FlashPlate, [125I]-NDP-αMSH; conditions: compound at 10 μM, [125I]-NDP-αMSH; for A5: inhibition of radioligand binding: human MC5 membranes
T1 construct: purchased Perkin Elmer Biosignal
Method in brief: (§1)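 Cloned human receptor membranes were coated onto FlashPlate wells and incubated with radioligand and compound (added from a 0.5 mM DMSO daughter plate) for 1 hour at room temperature in the dark. Scintillation counting gave percent inhibition, with DMSO defining total and reference ligand defining non-specific binding.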

Human Melanocortin (MC4) = molecular target: T2, Human Melanocortin (MC4) (Homo sapiens, UniProt P32245); test: Radioligand binding, human melanocortin MC4 membranes, FlashPlate, [125I]-NDP-αMSH; conditions: compound at 10 μM, [125I]-NDP-αMSH; for A4: inhibition of radioligand binding: human MC4 membranes
T2 construct: purchased Perkin Elmer Biosignal
T2 sequence (P32245 whole entry): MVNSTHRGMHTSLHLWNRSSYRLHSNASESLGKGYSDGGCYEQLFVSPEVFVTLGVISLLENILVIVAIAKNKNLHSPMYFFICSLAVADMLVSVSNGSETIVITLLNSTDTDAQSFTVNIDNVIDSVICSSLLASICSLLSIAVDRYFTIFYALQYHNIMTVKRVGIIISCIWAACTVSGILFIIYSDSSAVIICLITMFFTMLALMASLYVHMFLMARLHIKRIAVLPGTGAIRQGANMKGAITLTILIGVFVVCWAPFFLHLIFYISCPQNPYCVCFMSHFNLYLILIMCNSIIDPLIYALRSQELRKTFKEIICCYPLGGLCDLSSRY
Method in brief: as §1

Human κ-Opioid (KOP) = molecular target: T3, Human κ-Opioid (KOP) (Homo sapiens, UniProt P41145); test: Radioligand binding, human κ-opioid (KOP) membranes, filtration, [3H]-Diprenorphine; conditions: compound at 10 μM, [3H]-Diprenorphine; for A2: inhibition of radioligand binding: human KOP membranes
T3 construct: purchased Perkin Elmer Biosignal
T3 sequence (P41145 whole entry): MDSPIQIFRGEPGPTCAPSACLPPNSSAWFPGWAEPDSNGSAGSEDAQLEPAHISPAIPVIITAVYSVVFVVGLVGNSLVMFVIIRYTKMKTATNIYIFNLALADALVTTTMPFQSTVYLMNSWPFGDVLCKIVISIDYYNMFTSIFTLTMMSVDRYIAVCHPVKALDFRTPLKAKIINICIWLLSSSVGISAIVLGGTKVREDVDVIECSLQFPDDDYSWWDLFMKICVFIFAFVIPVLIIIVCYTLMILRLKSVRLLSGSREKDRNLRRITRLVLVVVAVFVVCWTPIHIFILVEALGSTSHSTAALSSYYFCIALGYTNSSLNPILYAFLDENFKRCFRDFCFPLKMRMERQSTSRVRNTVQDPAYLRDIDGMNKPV
Method in brief: (§2)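 Percent inhibition of radioligand binding measured on recombinant human membranes: NK1 with [125I]-Substance P, KOP with [3H]-Diprenorphine. Incubation 1 h at room temperature, then harvest onto 0.3% PEI-soaked filters, cold Tris-HCl pH 7.4 washes and scintillation counting; non-specific binding from reference ligand wells.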

[1] = molecular target: T4, Human neuropeptide Y (NPY-Y1) (Homo sapiens, UniProt P25929); test: Radioligand binding, human neuropeptide Y NPY-Y1 membranes, FlashPlate, [125I]-PYY; conditions: compound at 10 μM, [125I]-PYY; for A9: inhibition of radioligand binding: human NPY-Y1 membranes
T4 construct: purchased Perkin Elmer Biosignal
T4 sequence (P25929 1-384): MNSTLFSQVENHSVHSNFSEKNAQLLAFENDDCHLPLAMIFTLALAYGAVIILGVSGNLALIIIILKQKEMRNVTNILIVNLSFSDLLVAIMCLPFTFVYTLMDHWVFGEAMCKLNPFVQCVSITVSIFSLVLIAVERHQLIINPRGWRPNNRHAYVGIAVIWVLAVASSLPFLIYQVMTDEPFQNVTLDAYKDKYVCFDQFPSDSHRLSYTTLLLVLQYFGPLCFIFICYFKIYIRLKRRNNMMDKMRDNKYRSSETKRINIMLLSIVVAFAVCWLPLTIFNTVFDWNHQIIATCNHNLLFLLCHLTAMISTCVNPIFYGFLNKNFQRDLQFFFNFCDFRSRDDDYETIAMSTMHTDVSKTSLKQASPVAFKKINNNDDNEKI
Method in brief: as §1

Human Melanocortin (MC3) = molecular target: T5, Human Melanocortin (MC3) (Homo sapiens, UniProt P41968); test: Radioligand binding, human melanocortin MC3 membranes, FlashPlate, [125I]-NDP-αMSH; conditions: compound at 10 μM, [125I]-NDP-αMSH; for A3: inhibition of radioligand binding: human MC3 membranes
T5 construct: purchased Perkin Elmer Biosignal
T5 sequence (P41968 whole entry): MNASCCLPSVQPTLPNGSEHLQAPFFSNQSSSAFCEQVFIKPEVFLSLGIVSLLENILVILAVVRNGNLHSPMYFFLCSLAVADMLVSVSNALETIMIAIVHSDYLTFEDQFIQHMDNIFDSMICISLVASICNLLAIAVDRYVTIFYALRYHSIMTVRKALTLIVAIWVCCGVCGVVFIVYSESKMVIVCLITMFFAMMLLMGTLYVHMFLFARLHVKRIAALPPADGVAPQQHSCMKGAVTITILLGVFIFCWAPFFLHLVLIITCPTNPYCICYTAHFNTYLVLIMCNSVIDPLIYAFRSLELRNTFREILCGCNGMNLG
Method in brief: as §1

Human neurokinin (NK1) = molecular target: T6, Human neurokinin (NK1) (Homo sapiens, UniProt P25103); test: Radioligand binding, human neurokinin NK1 membranes, filtration, [125I]-Substance P; conditions: compound at 10 μM, [125I]-Substance P; for A8: inhibition of radioligand binding: human NK1 membranes
T6 construct: purchased Perkin Elmer Biosignal
T6 sequence (P25103 whole entry): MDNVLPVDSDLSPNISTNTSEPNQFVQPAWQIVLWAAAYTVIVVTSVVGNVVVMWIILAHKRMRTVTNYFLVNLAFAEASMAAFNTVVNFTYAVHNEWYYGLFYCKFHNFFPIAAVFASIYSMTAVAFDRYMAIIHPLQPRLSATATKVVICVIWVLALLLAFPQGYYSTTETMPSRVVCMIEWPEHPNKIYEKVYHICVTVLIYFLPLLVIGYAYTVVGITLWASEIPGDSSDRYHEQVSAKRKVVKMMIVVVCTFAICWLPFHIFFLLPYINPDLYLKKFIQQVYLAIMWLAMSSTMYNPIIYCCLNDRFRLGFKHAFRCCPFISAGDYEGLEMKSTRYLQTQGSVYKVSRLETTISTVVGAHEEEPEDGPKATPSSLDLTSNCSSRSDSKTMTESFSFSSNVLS
Method in brief: as §2

Human μ-opioid (MOP) = molecular target: T7, Human μ-opioid (MOP) (Homo sapiens, UniProt P35372); test: Radioligand binding, human μ-opioid (MOP) membranes, FlashPlate, [3H]-Naloxone; conditions: compound at 10 μM, [3H]-Naloxone; for A7: inhibition of radioligand binding: human MOP membranes
T7 construct: purchased Perkin Elmer Biosignal
T7 sequence (P35372 whole entry): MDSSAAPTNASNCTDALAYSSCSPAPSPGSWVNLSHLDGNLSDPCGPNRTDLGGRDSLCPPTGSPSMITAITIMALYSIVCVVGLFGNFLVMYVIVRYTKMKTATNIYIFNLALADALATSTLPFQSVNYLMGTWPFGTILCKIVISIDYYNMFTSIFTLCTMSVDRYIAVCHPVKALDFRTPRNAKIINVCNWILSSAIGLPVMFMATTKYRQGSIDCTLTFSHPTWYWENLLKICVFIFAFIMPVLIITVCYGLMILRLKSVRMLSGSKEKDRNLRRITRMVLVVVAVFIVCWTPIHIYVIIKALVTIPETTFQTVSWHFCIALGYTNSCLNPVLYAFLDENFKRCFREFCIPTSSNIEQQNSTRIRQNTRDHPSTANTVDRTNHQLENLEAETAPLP
Method in brief: as §1

[2] = molecular target: T8, Human melanin-concentrating hormone (MCH1) (Homo sapiens, UniProt Q99705); test: Radioligand binding, human melanin-concentrating hormone MCH1 membranes, FlashPlate, [125I]-S36057; conditions: compound at 10 μM; for A6: inhibition of radioligand binding: [125I]-S36057, human MCH1 membranes
T8 construct: purchased Perkin Elmer Biosignal
T8 sequence (Q99705 whole entry): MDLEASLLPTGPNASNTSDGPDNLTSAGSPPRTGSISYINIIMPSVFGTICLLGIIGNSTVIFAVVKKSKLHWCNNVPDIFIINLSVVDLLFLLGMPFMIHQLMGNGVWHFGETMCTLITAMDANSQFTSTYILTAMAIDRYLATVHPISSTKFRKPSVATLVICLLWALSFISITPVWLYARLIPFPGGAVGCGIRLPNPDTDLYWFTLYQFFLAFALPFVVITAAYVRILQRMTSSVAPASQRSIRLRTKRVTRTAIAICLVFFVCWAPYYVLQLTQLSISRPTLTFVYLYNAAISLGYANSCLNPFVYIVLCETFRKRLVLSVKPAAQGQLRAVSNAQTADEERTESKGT
Method in brief: as §1

Human opioid (ORL1) = molecular target: T9, Human opioid (ORL1) (Homo sapiens, UniProt P41146); test: Radioligand binding, human opioid ORL1 membranes, FlashPlate, [125I]-Nociceptin; conditions: compound at 10 μM, [125I]-Nociceptin; for A10: inhibition of radioligand binding: human ORL1 membranes
T9 construct: purchased Perkin Elmer Biosignal
T9 sequence (P41146 whole entry): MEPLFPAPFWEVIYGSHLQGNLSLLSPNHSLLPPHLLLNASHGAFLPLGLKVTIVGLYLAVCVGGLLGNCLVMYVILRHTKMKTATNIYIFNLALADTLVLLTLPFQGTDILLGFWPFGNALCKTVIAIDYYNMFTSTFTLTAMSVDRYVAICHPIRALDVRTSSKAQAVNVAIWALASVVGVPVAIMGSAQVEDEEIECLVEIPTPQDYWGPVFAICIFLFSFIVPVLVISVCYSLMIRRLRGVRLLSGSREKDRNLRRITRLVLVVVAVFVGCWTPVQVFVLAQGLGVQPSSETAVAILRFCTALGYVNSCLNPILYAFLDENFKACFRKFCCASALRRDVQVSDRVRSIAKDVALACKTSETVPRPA
Method in brief: as §1

Human δ-opioid (DOP) = molecular target: T10, Human δ-opioid (DOP) (Homo sapiens, UniProt P41143); test: Radioligand binding, human δ-opioid (DOP) membranes, FlashPlate, [3H]-Bremazocine; conditions: compound at 10 μM, [3H]-Bremazocine; for A1: inhibition of radioligand binding: human DOP membranes
T10 construct: purchased Perkin Elmer Biosignal
T10 sequence (P41143 whole entry): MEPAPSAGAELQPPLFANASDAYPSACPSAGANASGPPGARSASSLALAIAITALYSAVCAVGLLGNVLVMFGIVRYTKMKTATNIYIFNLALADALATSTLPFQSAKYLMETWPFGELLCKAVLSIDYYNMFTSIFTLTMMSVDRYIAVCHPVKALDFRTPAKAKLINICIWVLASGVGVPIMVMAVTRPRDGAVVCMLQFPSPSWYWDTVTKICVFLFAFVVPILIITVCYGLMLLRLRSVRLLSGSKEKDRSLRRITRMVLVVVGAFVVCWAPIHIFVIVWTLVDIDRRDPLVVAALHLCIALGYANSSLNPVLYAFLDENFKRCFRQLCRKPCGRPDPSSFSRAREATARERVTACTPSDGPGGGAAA
Method in brief: as §1

Mouse urotensin (mUR2) = molecular target: T11, Mouse urotensin (mUR2) (Mus musculus, UniProt Q8VIH9); test: Radioligand binding, mouse urotensin mUR2 membranes, FlashPlate, [125I]-Urotensin II; conditions: compound at 10 μM, [125I]-Urotensin II; for A11: inhibition of radioligand binding: mouse mUR2 membranes
T11 construct: purchased Perkin Elmer Biosignal
T11 sequence (Q8VIH9 1-385): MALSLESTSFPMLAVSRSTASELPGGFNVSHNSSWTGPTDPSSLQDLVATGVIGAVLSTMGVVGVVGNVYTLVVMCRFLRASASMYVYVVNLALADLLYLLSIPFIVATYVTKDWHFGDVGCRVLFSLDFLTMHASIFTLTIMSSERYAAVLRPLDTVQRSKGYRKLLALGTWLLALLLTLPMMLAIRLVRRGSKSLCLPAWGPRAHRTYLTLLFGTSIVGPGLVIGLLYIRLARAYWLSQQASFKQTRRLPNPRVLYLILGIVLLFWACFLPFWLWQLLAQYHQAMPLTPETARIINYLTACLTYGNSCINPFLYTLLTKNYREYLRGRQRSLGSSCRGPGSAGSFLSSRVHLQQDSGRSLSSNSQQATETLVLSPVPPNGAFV
Method in brief: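 Cloned mouse urotensin (mUR2) receptor membranes from Perkin Elmer Biosignal were immobilized in FlashPlate microplates using a proprietary coating. Each well got 19.5 μl buffer, then 0.5 μl of DMSO, reference ligand, or compound. Adding 5 μl of [125I]-Urotensin II, diluted to 5× final concentration in binding buffer, started binding. Plates were sealed with TopSeal-A and incubated 1 hour at room temperature in the dark. Wells were counted for 30 seconds each on a TopCount after a 60-second delay, and percentage inhibition was calculated.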

T1 sequence (P33032 whole entry): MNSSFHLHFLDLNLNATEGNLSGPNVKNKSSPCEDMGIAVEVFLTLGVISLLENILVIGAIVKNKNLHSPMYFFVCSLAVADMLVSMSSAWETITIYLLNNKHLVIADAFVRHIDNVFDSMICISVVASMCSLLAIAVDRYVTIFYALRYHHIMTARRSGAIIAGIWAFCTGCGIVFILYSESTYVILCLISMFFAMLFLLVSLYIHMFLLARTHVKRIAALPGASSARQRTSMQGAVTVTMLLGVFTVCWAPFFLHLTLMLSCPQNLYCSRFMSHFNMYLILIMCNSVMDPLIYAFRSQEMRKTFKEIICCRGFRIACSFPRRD

SMILES	A5: inhibition of radioligand binding (Human melanocortin (MC5))	A4: inhibition of radioligand binding (Human Melanocortin (MC4))	A2: inhibition of radioligand binding (Human κ-Opioid (KOP))	A9: inhibition of radioligand binding [1]	A3: inhibition of radioligand binding (Human Melanocortin (MC3))	A8: inhibition of radioligand binding (Human neurokinin (NK1))	A7: inhibition of radioligand binding (Human μ-opioid (MOP))	A6: inhibition of radioligand binding [2]	A10: inhibition of radioligand binding (Human opioid (ORL1))	A1: inhibition of radioligand binding (Human δ-opioid (DOP))	A11: inhibition of radioligand binding (Mouse urotensin (mUR2))	also measured
NCCC(=O)NC1C(OCc2ccc3ccccc3c2)OC(COCc2ccc3ccccc3c2)C(O)C1OCc1ccc2ccccc2c1 (stereo not drawn) [compound 384]	+ (“+” indicates greater than 50% inhibition at 10 μM)	+ (“+” indicates greater than 50% inhibition at 10 μM)	− (“−” indicates less than 50% inhibition at 10 μM)	− (“−” indicates less than 50% inhibition at 10 μM)	+ (“+” indicates greater than 50% inhibition at 10 μM)	+ (“+” indicates greater than 50% inhibition at 10 μM)	− (“−” indicates less than 50% inhibition at 10 μM)	+ (“+” indicates greater than 50% inhibition at 10 μM)	− (“−” indicates less than 50% inhibition at 10 μM)	− (“−” indicates less than 50% inhibition at 10 μM)	− (“−” indicates less than 50% inhibition at 10 μM)	–
NCCCC(=O)NC1C(OCc2ccc(Cl)cc2)OC(COCc2ccc(Cl)cc2)C(O)C1OCc1ccc(Cl)cc1 (single isomer, unassigned) [compound 494]	–	–	–	–	–	–	–	–	–	–	–	A5: inhibition of radioligand binding, human melanocortin (MC5) (Human melanocortin (MC5)): + (“+” indicates greater than 50% inhibition at 10 μM); A4: inhibition of radioligand binding, human melanocortin (MC4) (Human Melanocortin (MC4)): + (“+” indicates greater than 50% inhibition at 10 μM); A2: inhibition of radioligand binding, human κ-opioid (KOP) (Human κ-Opioid (KOP)): − (“−” indicates less than 50% inhibition at 10 μM); A9: inhibition of radioligand binding, human neuropeptide Y (NPY-Y1) [1]: − (“−” indicates less than 50% inhibition at 10 μM); A3: inhibition of radioligand binding, human melanocortin (MC3) (Human Melanocortin (MC3); 10 µM): + (“+” indicates greater than 50% inhibition at 10 μM); A8: inhibition of radioligand binding, human neurokinin (NK1) (Human neurokinin (NK1)): + (“+” indicates greater than 50% inhibition at 10 μM); A7: inhibition of radioligand binding, human μ-opioid (MOP) (Human μ-opioid (MOP)): − (“−” indicates less than 50% inhibition at 10 μM); A6: inhibition of radioligand binding, human melanin-concentrating hormone (MCH1) ([2]; [125I]-S36057): + (“+” indicates greater than 50% inhibition at 10 μM); A10: inhibition of radioligand binding, human opioid (ORL1) (Human opioid (ORL1)): + (“+” indicates greater than 50% inhibition at 10 μM); A1: inhibition of radioligand binding, human δ-opioid (DOP) (Human δ-opioid (DOP)): − (“−” indicates less than 50% inhibition at 10 μM); A11: inhibition of radioligand binding, mouse urotensin (mUR2) (Mouse urotensin (mUR2)): − (“−” indicates less than 50% inhibition at 10 μM)
N=C(N)NCC(=O)NC1C(OCc2ccc(Cl)cc2)OC(COCc2ccccc2)C(O)C1OCc1ccc2ccccc2c1 (stereo not drawn) [compound 421]	+ (“+” indicates greater than 50% inhibition at 10 μM)	+ (“+” indicates greater than 50% inhibition at 10 μM)	− (“−” indicates less than 50% inhibition at 10 μM)	− (“−” indicates less than 50% inhibition at 10 μM)	+ (“+” indicates greater than 50% inhibition at 10 μM)	+ (“+” indicates greater than 50% inhibition at 10 μM)	− (“−” indicates less than 50% inhibition at 10 μM)	+ (“+” indicates greater than 50% inhibition at 10 μM)	+ (“+” indicates greater than 50% inhibition at 10 μM)	− (“−” indicates less than 50% inhibition at 10 μM)	− (“−” indicates less than 50% inhibition at 10 μM)	–
